Patent US20240270821A1, “GIP/GLP1/GCG TRI-RECEPTOR AGONISTS AND USES THEREOF” (priority 2023, published 2024)
Where two headings read alike, the source gives them in different places. Starred links: 1 amine or outer side, 2 acyl side, 3 side chain; linkers in the order of their positions; H or OH if unused. Non-standard residues stand in square brackets, D forms with d. Residues, ends and D or L forms follow the SMILES beside them. Groups on a side chain read outwards from the residue. No end group written: not given here. *: point of attachment. C20 diacid = O=C(O)CCCCCCCCCCCCCCCCCCC(=O)*; C18 diacid = O=C(O)CCCCCCCCCCCCCCCCC(=O)*; αMePhe(2-F) = C[C@](N)(Cc1ccccc1F)C(=O)O; γGlu = O=C(O)[C@H](CCC(=O)[*:2])N[*:1]; αMe4Pal = C[C@](N)(Cc1ccncc1)C(=O)O; αMeY = C[C@](N)(Cc1ccc(O)cc1)C(=O)O; Hyp = O=C(O)[C@@H]1C[C@@H](O)CN1; αMeF = C[C@](N)(Cc1ccccc1)C(=O)O; 4Pal = N[C@@H](Cc1ccncc1)C(=O)O; αMeL = CC(C)C[C@](C)(N)C(=O)O; αMeS = C[C@](N)(CO)C(=O)O; Orn = NCCC[C@H](N)C(=O)O; AEEA = NCCOCCOCC(=O)O; Aib = CC(C)(N)C(=O)O

Key:
Assay type in all cases: cell-based
[1] = biological target: T1, hGIPR (Homo sapiens, UniProt P48546); test: Functional cAMP activation in the presence of 0.1% casein (no HSA); conditions: read-out: Relative cAMP EC50, hGIPR;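 also: intracellular cAMP rise after 30 min at 37 °C read by HTRF against a standard curve, scaled between buffer alone (0%) and top control ligand concentration (100%), four-parameter fit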
T1 sequence (P48546 22-466): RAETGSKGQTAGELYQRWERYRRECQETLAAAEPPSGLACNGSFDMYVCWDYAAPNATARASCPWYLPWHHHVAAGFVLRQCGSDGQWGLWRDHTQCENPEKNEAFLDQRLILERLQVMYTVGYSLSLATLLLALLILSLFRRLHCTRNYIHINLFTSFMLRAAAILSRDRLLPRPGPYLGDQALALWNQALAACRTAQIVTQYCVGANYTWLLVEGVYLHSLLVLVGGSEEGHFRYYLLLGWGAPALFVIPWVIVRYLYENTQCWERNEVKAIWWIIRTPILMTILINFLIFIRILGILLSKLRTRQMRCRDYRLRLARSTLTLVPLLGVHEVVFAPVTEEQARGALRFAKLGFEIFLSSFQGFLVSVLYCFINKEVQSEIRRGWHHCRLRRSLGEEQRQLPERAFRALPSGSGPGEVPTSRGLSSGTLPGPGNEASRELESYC

[2] = biological target: hGcgR (Homo sapiens, UniProt P47871); test: as above; conditions: read-out: Relative cAMP EC50, hGcgR;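 also: intracellular cAMP rise after 30 min at 37 °C, read by HTRF against a cAMP standard curve, scaled from buffer only (0%) to maximal control ligand response (100%)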
Sequence of hGcgR (P47871 26-477): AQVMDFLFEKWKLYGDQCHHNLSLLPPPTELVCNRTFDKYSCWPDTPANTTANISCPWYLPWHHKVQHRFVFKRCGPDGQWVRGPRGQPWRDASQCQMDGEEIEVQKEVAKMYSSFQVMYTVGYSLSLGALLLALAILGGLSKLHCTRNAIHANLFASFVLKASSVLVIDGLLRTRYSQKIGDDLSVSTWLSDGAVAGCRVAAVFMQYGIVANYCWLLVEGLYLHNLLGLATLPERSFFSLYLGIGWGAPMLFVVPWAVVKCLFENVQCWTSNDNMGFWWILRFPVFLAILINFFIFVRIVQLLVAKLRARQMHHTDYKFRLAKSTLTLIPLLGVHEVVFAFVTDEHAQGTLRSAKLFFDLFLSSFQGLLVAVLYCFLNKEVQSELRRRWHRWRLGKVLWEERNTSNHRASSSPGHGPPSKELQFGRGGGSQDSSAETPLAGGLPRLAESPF

[3] = biological target: T1, hGIPR; test: Functional cAMP activity in the presence of 1% HSA; conditions: read-out: cAMP Rel EC50, hGIPR
[4] = biological target: T2, hGLP-1R (Homo sapiens, UniProt P43220); test: Functional cAMP activity in the presence of 1% HSA; conditions: read-out: cAMP Rel EC50, hGLP-1R
T2 sequence (P43220 24-463): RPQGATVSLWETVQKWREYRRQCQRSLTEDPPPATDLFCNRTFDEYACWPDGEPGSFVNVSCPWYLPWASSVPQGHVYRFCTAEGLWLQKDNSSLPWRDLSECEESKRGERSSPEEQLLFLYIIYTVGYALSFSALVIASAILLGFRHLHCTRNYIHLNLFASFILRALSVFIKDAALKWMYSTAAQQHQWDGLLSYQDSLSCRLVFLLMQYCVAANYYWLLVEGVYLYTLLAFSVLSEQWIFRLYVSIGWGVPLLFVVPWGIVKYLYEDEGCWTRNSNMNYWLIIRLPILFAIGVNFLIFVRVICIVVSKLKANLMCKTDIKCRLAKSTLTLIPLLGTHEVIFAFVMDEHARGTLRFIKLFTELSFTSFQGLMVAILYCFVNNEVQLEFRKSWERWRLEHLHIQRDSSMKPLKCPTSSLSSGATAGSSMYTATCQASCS

[5] = biological target: T2, hGLP-1R; test: Functional cAMP activation in the presence of 0.1% casein (no HSA); conditions: read-out: Relative cAMP EC50, hGLP-1R;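 as to Relative cAMP EC50, hGLP-1R: intracellular cAMP rise after 30 min at 37 °C read by HTRF, normalized between buffer only (0%) and maximal control ligand (100%), four-parameter variable-slope fit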;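 as to Relative cAMP EC50, hGcgR: intracellular cAMP rise after 30 min at 37 °C, read by HTRF against a cAMP standard curve, scaled from buffer only (0%) to maximal control ligand response (100%)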
[6] = biological target: human GcgR (Homo sapiens, UniProt P47871); test: Functional cAMP activity in the presence of 1% HSA; conditions: read-out: cAMP Rel EC50, hGcgR
Sequence of human GcgR (P47871 26-477): as the sequence (P47871 26-477) above

[7] = in the presence of 0.1% casein (no HSA), geometric mean
[8] = 0.1% casein, no HSA, geometric mean

Compound | EC50 [1, 7] | EC50 [2, 7] | EC50 [3] | EC50 [4] | EC50 [5, 7] | EC50 [6] | EC50 [1] | EC50 [2] | EC50 [5] | EC50 [1, 8] | EC50 [2, 8] | EC50 [5, 8]
H-Y[Aib]QGTFTSD[4Pal]SQ[αMeL]LDKK([AEEA-γGlu-C18 diacid])AQ[αMe4Pal]AFIEYLIE[Aib]GPSSGAPPPSGSGE [Example 889] | 0.106 nM | 4.09 nM | 21.6 nM | 371 nM | 5.06 nM | 688 nM | – | – | – | – | – | –
CC[C@H](C)[C@H](NC(=O)[C@H](CC(C)C)NC(=O)[C@](C)(Cc1ccc(O)cc1)NC(=O)[C@@H](CCC(=O)O)NC(=O)[C@@H](NC(=O)[C@H](Cc1ccccc1)NC(=O)[C@H](CCC(=O)O)NC(=O)C(C)(C)NC(=O)[C@H](C)NC(=O)[C@H](C)NC(=O)[C@H](CCCCNC(=O)COCCOCCNC(=O)CC[C@H](NC(=O)CCCCCCCCCCCCCCCCC(=O)O)C(=O)O)NC(=O)[C@H](CCCN)NC(=O)[C@H](CC(=O)O)NC(=O)[C@H](CC(C)C)NC(=O)[C@](C)(CC(C)C)NC(=O)[C@@H](NC(=O)[C@](C)(CO)NC(=O)[C@H](Cc1ccncc1)NC(=O)[C@H](CC(=O)O)NC(=O)[C@H](CO)NC(=O)[C@@H](NC(=O)[C@](C)(Cc1ccccc1F)NC(=O)[C@@H](NC(=O)CNC(=O)[C@H](CCC(N)=O)NC(=O)C(C)(C)NC(=O)[C@@H](N)Cc1ccc(O)cc1)[C@@H](C)O)[C@@H](C)O)[C@@H](C)CC)[C@@H](C)CC)C(=O)N[C@@H](CCC(=O)O)C(=O)NCC(=O)NCC(=O)N1CCC[C@H]1C(=O)N[C@@H](CO)C(=O)N[C@@H](CO)C(=O)NCC(=O)N[C@@H](C)C(=O)N1CCC[C@H]1C(=O)N1CCC[C@H]1C(=O)N1CCC[C@H]1C(=O)N[C@@H](CO)C(=O)NCC(=O)N[C@@H](CO)C(N)=O [Example 671] | – | – | 0.657 nM | 17.6 nM | – | 152 nM | 0.00807 nM | 1.81 nM | 0.166 nM | – | – | –
H-Y[Aib]QGTFTSD[4Pal]S[Orn][αMeL]LD[Orn]K([γGlu-γGlu-C18 diacid])AQ[αMe4Pal]EFIEYLLAGGPSSGAPPPSGSEE-NH2 [Example 1003] | 0.272 nM | 5.07 nM | 15.9 nM | 1950 nM | 42.4 nM | 371 nM | – | – | – | – | – | –
Y[Aib]QGTFTSD[4Pal]SQ[αMeL]LD[Orn]K([AEEA-γGlu-C18 diacid])AQ[αMe4Pal]AFIE[αMeY]LLEGGPSSGAPPPSGS-NH2 [Example 932] | 0.188 nM | 2.67 nM | 25 nM | 249 nM | 1.61 nM | 513 nM | – | – | – | – | – | –
CC[C@H](C)[C@H](NC(=O)[C@H](Cc1ccccc1)NC(=O)[C@H](C)NC(=O)C(C)(C)NC(=O)[C@H](CCC(N)=O)NC(=O)[C@H](C)NC(=O)[C@H](CCCCNC(=O)COCCOCCNC(=O)CC[C@H](NC(=O)CCCCCCCCCCCCCCCCC(=O)O)C(=O)O)NC(=O)[C@H](CCCCN)NC(=O)[C@H](CC(=O)O)NC(=O)[C@H](CC(C)C)NC(=O)[C@](C)(CC(C)C)NC(=O)[C@@H](NC(=O)[C@H](CO)NC(=O)[C@H](Cc1ccc(O)cc1)NC(=O)[C@H](CC(=O)O)NC(=O)[C@H](CO)NC(=O)[C@@H](NC(=O)[C@](C)(Cc1ccccc1)NC(=O)[C@@H](NC(=O)CNC(=O)[C@H](CCC(N)=O)NC(=O)C(C)(C)NC(=O)[C@@H](N)Cc1ccc(O)cc1)[C@@H](C)O)[C@@H](C)O)[C@@H](C)CC)C(=O)N[C@@H](CCC(=O)O)C(=O)N[C@@H](Cc1ccc(O)cc1)C(=O)N[C@@H](CC(C)C)C(=O)N[C@@H](CCC(=O)O)C(=O)N[C@@H](CCC(=O)O)C(=O)NCC(=O)NCC(=O)N1CCC[C@H]1C(=O)N[C@@H](CO)C(=O)N[C@@H](CO)C(=O)NCC(=O)N[C@@H](C)C(=O)N1CCC[C@H]1C(=O)N1CCC[C@H]1C(=O)N1CCC[C@H]1C(=O)N[C@@H](CO)C(N)=O [Example 394] (H-Y[Aib]QGT[αMeF]TSDYSI[αMeL]LDKK([AEEA-γGlu-C18 diacid])AQ[Aib]AFIEYLEEGGPSSGAPPPS-NH2) | – | – | 7.22 nM | 33.2 nM | – | 1090 nM | 0.018 nM | 5.63 nM | 0.226 nM | – | – | –
H-Y[Aib]QGTFTSDFS[Orn][αMeL]LDKK([AEEA-γGlu-C18 diacid])AQ[Aib]AFIEYLLEGG[Hyp]SSGAPPPGGS-NH2 [Example 234] | 0.322 nM | 7.87 nM | 31.1 nM | 604 nM | 4.72 nM | 702 nM | – | – | – | – | – | –
H-Y[Aib]QGT[αMePhe(2-F)]TSD[4Pal][αMeS]I[αMeL]LD[Orn]K([AEEA-AEEA-γGlu-C18 diacid])AQ[αMe4Pal]EFI[dE][αMeY]LIEGGPSSGEPPPSGS-NH2 [Example 1208] | – | – | 0.786 nM | 44.8 nM | – | 451 nM | – | – | – | 0.00907 nM | 3.52 nM | 0.526 nM
H-Y[Aib]QGT[αMePhe(2-F)]TSD[4Pal]SILLDKK([γGlu-γGlu-C18 diacid])AQ[Aib]AFIE[αMeY]LEEGGPSSGAPPPSGTGE-NH2 [Example 664] | – | – | 1.18 nM | 27.7 nM | – | 179 nM | 0.0159 nM | 2.12 nM | 0.356 nM | – | – | –
H-Y[Aib]QGTFTSD[4Pal]S[Orn][αMeL]LD[Orn]K([γGlu-γGlu-C18 diacid])AQ[Aib]AFIE[αMeY]LLEGGPSSGAPPPSGSEE-NH2 [Example 1064] | 0.556 nM | 13.7 nM | 62.5 nM | 912 nM | 7.89 nM | 1940 nM | – | – | – | – | – | –
H-Y[Aib]QGT[αMePhe(2-F)]TSD[4Pal][αMeS]I[αMeL]LD[Orn]K([AEEA-γGlu-C18 diacid])AA[Aib]EFI[dE][αMeY]LIEGGPSSGAPPPSGTEQ-OH [Example 726] | – | – | 1.22 nM | 33.3 nM | – | 226 nM | 0.013 nM | 1.71 nM | 0.247 nM | – | – | –
CC[C@H](C)[C@H](NC(=O)[C@H](Cc1ccccc1)NC(=O)[C@H](C)NC(=O)C(C)(C)NC(=O)[C@H](CCC(N)=O)NC(=O)[C@H](C)NC(=O)[C@H](CCCCNC(=O)COCCOCCNC(=O)CC[C@H](NC(=O)CCCCCCCCCCCCCCCCC(=O)O)C(=O)O)NC(=O)[C@H](CCCN)NC(=O)[C@H](CC(=O)O)NC(=O)[C@H](CC(C)C)NC(=O)[C@](C)(CC(C)C)NC(=O)[C@@H](NC(=O)[C@H](CO)NC(=O)[C@H](Cc1ccncc1)NC(=O)[C@H](CC(=O)O)NC(=O)[C@H](CO)NC(=O)[C@@H](NC(=O)[C@](C)(Cc1ccccc1F)NC(=O)[C@@H](NC(=O)CNC(=O)[C@H](CCC(N)=O)NC(=O)C(C)(C)NC(=O)[C@@H](N)Cc1ccc(O)cc1)[C@@H](C)O)[C@@H](C)O)[C@@H](C)CC)C(=O)N[C@@H](CCC(=O)O)C(=O)N[C@@H](Cc1ccc(O)cc1)C(=O)N[C@@H](CC(C)C)C(=O)N[C@@H](CCC(=O)O)C(=O)N[C@@H](CCC(=O)O)C(=O)NCC(=O)NCC(=O)N1CCC[C@H]1C(=O)N[C@@H](CO)C(=O)N[C@@H](CO)C(=O)NCC(=O)N[C@@H](CCC(=O)O)C(=O)N1CCC[C@H]1C(=O)N1CCC[C@H]1C(=O)N1CCC[C@H]1C(=O)N[C@@H](CO)C(N)=O [Example 486] (H-Y[Aib]QGT[αMePhe(2-F)]TSD[4Pal]SI[αMeL]LD[Orn]K([AEEA-γGlu-C18 diacid])AQ[Aib]AFIEYLEEGGPSSGEPPPS-NH2) | – | – | 2.57 nM | 35 nM | – | 647 nM | 0.0262 nM | 4.43 nM | 0.375 nM | – | – | –
H-Y[Aib]QGT[αMePhe(2-F)]TSD[4Pal][αMeS]I[αMeL]LD[Orn]K([γGlu-γGlu-C18 diacid])AQ[αMe4Pal]EFI[dE][αMeY]LIEGGPPS[Aib][Orn]PPP[Orn]SE-NH2 [Example 1228] | – | – | 0.522 nM | 39.1 nM | – | 185 nM | – | – | – | 0.0067 nM | 1.98 nM | 0.379 nM
H-Y[Aib]QGTFTSD[4Pal][αMeS]Q[αMeL]LD[Orn]K([dE-γGlu-C18 diacid])AQ[αMe4Pal]QFIQ[αMeY]LIE[Aib]GPSSGAPPPSGGGE-NH2 [Example 1186] | 0.0404 nM | 1.46 nM | 3.17 nM | 52.1 nM | 0.594 nM | 164 nM | – | – | – | – | – | –
H-Y[Aib]QGTFTSD[4Pal]SQ[αMeL]LDKK([γGlu-γGlu-C18 diacid])AQ[αMe4Pal]AFIE[αMe4Pal]LIEGGPSSGAPPPSGS-NH2 [Example 951] | 0.156 nM | 5.73 nM | 18.2 nM | 382 nM | 2.61 nM | 657 nM | – | – | – | – | – | –
H-Y[Aib]QGTFTSDFSK[αMeL]LDKK([AEEA-γGlu-C20 diacid])AQ[Aib]AFIEYLLAGGPSSGAPPPSGS-NH2 [Example 14] | 0.17 nM | 7.23 nM | 34.7 nM | 232 nM | 1.67 nM | 1420 nM | – | – | – | – | – | –
